Assay results taken from US20220339257A1, “METHODS TO INCREASE THE SENSITIVITY AND REVERSING THE RESISTANCE TO DRUGS” (Biomarker Strategies, LLC, priority 2019, published 2022).

Key:
Format in all cases: cell-based
BICR-16 = test: WST-8 cell viability assay; settings: in combination with GSK-458, 72 hours
Experimental: (§1) Day 1: cells were harvested cells from flask (4 mL accutase for T175 for 3-5 minutes), and spin down for 5 mins at 1200 rpm. The supernatant was poured off, and the pellet gently resuspended in 1 mL media. Countess counts were performed, and the cells were diluted in media (10% FBS). With multi-channel pipette, 2500 cells were seeded in 100 uL of media (10% FBS) in each well of 96 well plate. The cells were let to adhere and grow for 24 hours. Day 2: serial drug dilutions of MTAs+/−EMs at 5× of concentrations (as done above) were performed in media (10% FBS). 20 uL of media form each well of the 96 well plate (80 uL media left in wells) was removed, and 20 uL of appropriate 5× drug dilutions was added to each respective well (for a 1× conc). The cells were incubated with drug for 72 hours in 37C incubator. Day 5: 10 uL of WST-8 reagent was added to each well of the 96 well plate and mixed gently. the plates were incubated up to 4 hours at 37C in dark, and absorbance readings were taken at […] and 600 nm wavelengths at 1, 2, 3 and 4h, until control absorbance levels were 1.5-2.0).
(§2) WST-8 Assay: MTA and EM effects on cell viability were measured by Cell Counting Kit8 (WST-8) colorimetric assay using water-soluble tetrazolium salt WST-8 reagent (Vita Scientific Cat. #DBOC00128). For the assay, cells were seeded in 96-well plates at 2,500 cells per well, in 100 μL of 10% FBS-containing media. After 24 hours, a 1 nM to 10 μM range of MTA and/or 1 ng/mL to 1 mg/mL range of EM doses was added and incubated for 72 hours. After treatment, a 10% volume of WST-8 reagent was added to each well and cells were incubated at 37° C. for up to 4 hours. Solution absorbance was measured at wavelengths of 450 nm and 600 nm at 1-, 2-, 3-, and 4-hour's incubation. Percentage viability of drug-treated cells was calculated relative to untreated control cells. Results were confirmed by three independent experiments.
(§3) For studying the effects of various molecularly targeted agents (MTAs) and enhancer molecules (EMs) alone as well as in combination: HCC827, PC-9, A427, Calu-6, H2228, H358, H1299, H460, H292, H1838, H2170, and H226 (non-small cell lung cancer; NSCLC); and SK-MES-1 […], CAL27, OE21, KYSE-70, A-253, BICR-16, PE/CA-PJ15 and Ca9-22 (head and neck squamous cell carcinoma; HNSCC); SK-MEL-2, SK-MEL-28, RPMI-7951 and A7 (melanoma); HTB-38 and HCT116 (colorectal cancer; CRC); BxPC-3 and HPAF-II (pancreatic cancer); HEPG2 (hepatocellular carcinoma; HCC); A498 (renal cell carcinoma; RCC) cells were used. Other cell lines, including those from other cancer types, or cells collected from more complex sample types such as xenografts and clinical samples can be used. Ultimately, these combinations can be utilized in various clinical and pre-clinical samples and studies. Using the WST-8 cell viability assay, a MTA+EM-induced anti-cancer/anti-growth activity in multiple cell lines was discovered (FIGS. 8-15). Other viability assays, for example, MTT, HoPI staining, dye exclusion (e.g. trypan blue), can be used readily. […] The cut-off value for classifying a “strong anti-cancer/anti-growth enhancement” was a response resulting in >70% reduction in cell survival compared to untreated control cells (100%), while showing greater reduction compared to both MTA and EM alone.

BxPC-3 = test: WST-8 cell viability assay; settings: in combination with GSK-458, 72 hours
Experimental: as §1, §2, §3

CAL27 = test: WST-8 cell viability assay; settings: in combination with GSK-795, 72 hours
Experimental: as §1, §2, §3

Calu-6 = test: WST-8 cell viability assay
Experimental: as §1, §2, §3

HPAF-II = test: WST-8 cell viability assay
Experimental: as §1, §2, §3

HTB-38 = test: WST-8 cell viability assay
Experimental: as §1, §2, §3

OE21 = test: WST-8 cell viability assay; settings: in combination with trametinib, 72 hours
Experimental: as §1, §2, §3

CAL27 cells = test: Western blot of protein biomarkers; settings: GSK-795 (10 nM)+IFN-γ (50 ng/mL)
Experimental: (§4) MTA and EM effects on protein biomarker expression were measured by western blotting. For the assay cell lines (Ca9-22, PE/CA-PJ15, HTB-38, HPAF-II, CAL27, BICR-16, A-253, Calu-6, PC-9, H1838, RPMI-7951 and A7) were cultured and treated with doses of MTAs alone, EMs alone and in combination and then lysed for protein analysis. This method can readily be conducted under adherent or suspension conditions, manually or on automated instruments, such as SnapPath. A total of 0.3×10^6 cells per well were seeded in 6 well plates with 10% FBS-containing media and incubated for 24 hours. Cells were then treated with MTA and/or EM concentrations for 24 hours. For total protein extraction, briefly, each sample media was collected, and wells were washed with HMS, and the wash was combined with its respective media collection. Cells were then detached using Accutase solution and again collected in its respective sample media and another HMS well wash and collection was performed. All cell solutions were centrifuged, washed with ice-cold PBS, and centrifuged again. Cell pellets were lysed in 250 μL of ice-cold 1× lysis buffer with protease and phosphatase inhibitor cocktails and incubated for 10 minutes on ice. Lysates were clarified with a centrifugation (14,000 rpm) for 10 minutes at 4° C. Cell lysates were quantified using Bio-Rad DC Protein Assay (Bio-Rad Cat. #5000116).
(§5) For all western blots, an equal amount of protein (3-5 μg) was loaded into SDS-polyacrylamide gels (Mini-Protean TGX Precast Gel; Bio-Rad, e.g. 7.5%, Cat. #4561024; 10%, Cat. #4561035; 12%, Cat. #4561045; or 4-15%, Cat. #4561085). Proteins were separated at 215V for at least 30 minutes in 1× Tris/Glycine/SDS buffer (Bio-Rad Cat. #1610772) and transferred to PVDF membranes using a Trans-Blot Turbo (Bio-Rad Cat. #1704155) for 7 minutes in transfer buffer (Trans-Blot Turbo Transfer Kit, Bio-Rad Cat. #1704273). Blots were blocked at room temperature for 1 hour with 5% non-fat dry milk in tris-buffered saline with Tween 20 (TBST; 15 mM Tris-HCl, pH 7.5, 200mMNaCl and 0.1% Tween 20). Membranes were incubated with primary antibodies at 4° C. overnight and at room temperature for 1 hour the next day; all primary antibodies were diluted following manufacturer's specifications in TBST with either 5% BSA or 5% non-fat dry milk. Membranes were washed in TBST for 5 minutes, three times, and incubated with HRP-conjugated secondary antibodies diluted 1:5000 in TBST with 5% non-fat dry milk at room temperature for 1 hour (anti-rabbit IgG, Bio-Rad Cat. #1706515; or anti-mouse IgG, Bio-Rad Cat. #1706516). Membranes were then washed in TBST for 10 minutes, three times, and target proteins were identified using Clarity Western ECL Substrate (Bio-Rad Cat. #1705061) on autoradiography film (GenHunter Cat. #B581, Nashville, Tenn., USA). Other assay types, such as Luminex multiplexed immunoassays, ICC, IHC, flow cytometry, etc. can be used readily.

[1] = test system: panel of cell lines that included NSCLC, HNSCC, melanoma, and CRC; test: WST8 in vitro sensitivity to MTAs with and without EM
Experimental: as §1
We used a panel of cell lines that included NSCLC, HNSCC, melanoma, and CRC. These cell lines are a good model system harboring similar (epi)genetic changes found in patients' tumors. We used the WST8 assay to determine the in vitro sensitivity to various MTAs with and without EM1.

A-253 = test: WST-8 cell viability assay; settings: in combination with spermidine, 72 hours
Experimental: as §1, §2, §3

Ca9-22 = test: WST-8 cell viability assay; settings: in combination with osimertinib, 72 hours
Experimental: as §1, §2, §3

H2170 = test: WST-8 cell viability assay; settings: in combination with GSK-458, 72 hours
Experimental: as §1, §2, §3

Ca9-22 cells = test: Western blot of protein biomarkers; settings: osimertinib (100 nM)+IL-17 (10 ng/mL)
Experimental: as §4, §5

HPAF-II cells = test: Western blot of protein biomarkers; settings: trametinib (100 nM)+IL-17 (10 ng/mL), 24 hours
Experimental: as §4, §5

Calu-6 cells = test: Western blot of protein biomarkers; settings: GSK-458 (100 nM)+TNF-β (50 ng/mL), 24 hours
Experimental: as §4, §5

[2] = in combination with GSK-458, 72 hours
[3] = in combination with trametinib, 72 hours
[4] = 24 hours, compared to either MTA or EM alone
[5] = compared to either therapy alone

## interferon-gamma [EM1, enhancer molecule, cytokine purchased from Sigma]
BICR-16
  anti-cancer/growth enhancement (WST-8 cell viability): moderate-to-strong anti-cancer/growth enhancement
BxPC-3
  anti-cancer/growth enhancement (WST-8 cell viability): moderate-to-strong anti-cancer/growth enhancement
CAL27
  anti-cancer/growth enhancement (WST-8 cell viability): moderate-to-strong anti-cancer/growth enhancement
Calu-6; in combination with GSK-795, 72 hours
  anti-cancer/growth enhancement (WST-8 cell viability): moderate-to-strong anti-cancer/growth enhancement
HPAF-II; [2]
  anti-cancer/growth enhancement (WST-8 cell viability): moderate-to-strong anti-cancer/growth enhancement
HPAF-II; [3]
  anti-cancer/growth enhancement (WST-8 cell viability): moderate-to-strong anti-cancer/growth enhancement
HTB-38; [2]
  anti-cancer/growth enhancement (WST-8 cell viability): moderate-to-strong anti-cancer/growth enhancement
HTB-38; in combination with dabrafenib, 72 hours
  anti-cancer/growth enhancement (WST-8 cell viability): moderate-to-strong anti-cancer/growth enhancement
HTB-38; [3]
  anti-cancer/growth enhancement (WST-8 cell viability): moderate-to-strong anti-cancer/growth enhancement
OE21
  anti-cancer/growth enhancement (WST-8 cell viability): moderate-to-strong anti-cancer/growth enhancement
CAL27 cells; [4]
  p-AKT (Ser473) expression: strong reduction in p-AKT (Ser473) expression
CAL27 cells; 24 hours, compared to either alone
  LC3II over LC3I expression: marked increase in LC3II over LC3I expression
CAL27 cells; [5]
  p62 expression: reduced p62 expression
[1]
  response enhancement (in vitro sensitivity to various MTAs with and without EM, WST8): no, minimal and strong response enhancement

## interleukin 17 [EM5]
A-253
  anti-cancer/growth enhancement (WST-8 cell viability): moderate-to-strong anti-cancer/growth enhancement
Ca9-22
  anti-cancer/growth enhancement (WST-8 cell viability): moderate-to-strong anti-cancer/growth enhancement
Calu-6; [3]
  anti-cancer/growth enhancement (WST-8 cell viability): moderate-to-strong anti-cancer/growth enhancement
H2170
  anti-cancer/growth enhancement (WST-8 cell viability): moderate-to-strong anti-cancer/growth enhancement
HPAF-II; [3]
  anti-cancer/growth enhancement (WST-8 cell viability): moderate-to-strong anti-cancer/growth enhancement
Ca9-22 cells; [4]
  p-AKT (Ser473) expression: strong reduction in p-AKT (Ser473) expression
Ca9-22 cells; compared to both MTA and EM alone
  Ki67 expression: enhanced reduction in Ki67 expression
HPAF-II cells; compared to MTA and EM alone
  PARP cleavage: very strong PARP cleavage
HPAF-II cells; compared to either MTA or EM alone
  p-AKT (Ser473) expression: strong reduction in p-AKT (Ser473) expression
HPAF-II cells; [5]
  Ki67 degradation and/or fragmentation pattern: marked increase in the distinct degradation and/or fragmentation pattern of Ki67

B1: tumor necrosis factor-beta (protein, UniProt P01374 35-205, looked up)
Lymphotoxin-alpha: LPGVGLTPSAAQTARQHPKMHLAHSTLKPAAHLIGDPSKQNSLLWRANTDRAFLQDGFSLSNNSLLVPTSGIYFVYSQVVFSGKAYSPKATSSPLYLAHEVQLFSSQYPFHVPLLSSQKMVYPGLQEPWLHSMYHGAAFQLTQGDQLSTHTDGIPHLVLSPSTVFFGAFAL
notes: enhancer molecule, cytokine purchased from Sigma
Ca9-22
  anti-cancer/growth enhancement (WST-8 cell viability): anti-cancer/growth enhancement
Calu-6 cells; compared to MTA and EM alone
  PARP cleavage: very strong PARP cleavage
Calu-6 cells; [5]
  Ki67 degradation and/or fragmentation pattern: marked increase in the distinct degradation and/or fragmentation pattern of Ki67
